Measurements from patent publication EP0153203A1, “C10-C20-Branched-chain fatty acids useful as medicaments and the preparation thereof” (PIERRE FABRE MEDICAMENT, priority 1984, dated 1985).

Tested on: oedème généralisé au dextran
Assay: generalized dextran oedema test (anti-inflammatory activity, oral, rat)
Format: in vivo

SMILES | activité anti-inflammatoire (même type) (administration par voie orale chez le rat, concentration and vehicle not stated) | propriétés anti-inflammatoires (test de l'oedème généralisé au dextran) (solution à 1 % dans l'huile d'arachide, voie orale chez le rat, by action on the vascular phase and decrease of platelet aggregation)
CCC(C)CCCCCCCCCC(=O)O (centres unmarked) [acide antéisomyristique, acide méthyl-11 tridécanoique] | Le même type d'activité anti-inflammatoire a été mis en évidence | –
CC(C)CCCCCCCCCCC(=O)O [acide isomyristique, acide méthyl-12 tridécanoTque] | – | propriétés anti-inflammatoires marquées
